Values joined by “and” are separate entries in the source; they are usually repeats but may differ in a detail not shown here. Identical values can stand only once.
Key:
NgTet1 [1] = biological target: T1, NgTet1 (Naegleria gruberi, UniProt D2W6T1); assay: biochemical; conditions: for normalised activity, %: AlphaScreen
T1 construct: His6-tagged full-length Naegleria gruberi NgTet1 (321 a. a.) protein with a thrombin cleavage site; made in house; host or cells: E. coli BL21(DE3)
T1 sequence (D2W6T1 1-321): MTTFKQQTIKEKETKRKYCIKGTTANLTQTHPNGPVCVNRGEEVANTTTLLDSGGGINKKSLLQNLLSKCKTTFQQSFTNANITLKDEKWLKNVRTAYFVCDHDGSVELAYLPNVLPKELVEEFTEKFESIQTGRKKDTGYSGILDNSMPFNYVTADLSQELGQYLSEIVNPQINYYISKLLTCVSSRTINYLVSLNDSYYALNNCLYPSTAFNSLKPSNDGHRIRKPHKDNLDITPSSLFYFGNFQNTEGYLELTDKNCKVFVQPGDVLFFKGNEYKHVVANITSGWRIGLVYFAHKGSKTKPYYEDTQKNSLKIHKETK
Method: (Fig. 5a), were screened for inhibitory activity against NgTet1.
Activity was normalised against reactions containing vehicle (DMSO). […] AS data shown as the mean of three experimental replicates (n = 3; mean ± SD); ^1H NMR data plotted from two independent replicates (n = 2); tabulated data reported as the mean of two and three independent replicates for ^1H NMR and AS, respectively (n = 2–3, SD reported for n = 3). N. d.: not determined; AS: AlphaScreen.
Compounds in DMSO (100 nL) were pre-dispensed in a logarithmically linear concentration gradient onto 384-well ProxiPlates using an Echo® 550 acoustic liquid handler (Labcyte). NgTet1 was pre-incubated with the inhibitor dilution series in DMSO at room temperature for 10 min. Reactions were initiated by the addition of appropriate cofactors and DNA. […] The reactions were quenched by the addition of 30 mM EDTA (pH 4.2), 358 mM NaCl (5 μL) within the enzyme linear activity window (determined in Fig. S10). Concurrently, a mixture containing the anti-^5hmC antibody (1:2000 dilution) and AlphaScreen beads (1:62.5 dilution) in assay buffer was prepared and incubated at room temperature for 30 min. The AlphaScreen bead/antibody mixture was added to the quenched NgTet1 reactions (5 μL), and the complete mixture was incubated at room temperature for 1 h. Chemiluminescence was measured on a PHERAstar FS/FSX (BMG Labtech) equipped with an AlphaScreen 680 570 module. All AlphaScreen bead manipulations were performed under subdued lighting. Inhibition data was normalised to reactions containing vehicle only (1% v/v DMSO) and fitted using “log(inhibitor) vs. response—Variable slope (four parameters)” non-linear regression model on GraphPad Prism 5.

TET2CDΔLCI = assay: Continuous reaction monitoring (1H NMR), 2OG decarboxylation; format: biochemical, human; conditions: Supp Fig 10 a
Method: Double-stranded DNA oligomers were added at a final concentration of 20 µM. Data plotted from two independent replicates (n = 2). Initial rates reported as the mean of two independent replicates (n = 2). TEXT PRINTED IN THE PICTURE: (c) No DNA: V0 (μM min^−1) NgTet1: 0.36; V0 (μM min^−1) TET2: 1.28; Relative V0 NgTet1: 1; Relative V0 TET2: 1 | (c) ^5HC DNA: V0 (μM min^−1) NgTet1: 1.30; V0 (μM min^−1) TET2: 6.34; Relative V0 NgTet1: 3.6; Relative V0 TET2: 5.0 | (c) AT DNA: V0 (μM min^−1) NgTet1: 0.82; V0 (μM min^−1) TET2: 5.78; Relative V0 NgTet1: 2.3; Relative V0 TET2: 4.5 | (c) ^5mC DNA: V0 (μM min^−1) NgTet1: 1.52; V0 (μM min^−1) TET2: 6.79; Relative V0 NgTet1: 4.2; Relative V0 TET2: 5.3
All ^1H NMR spectra were recorded at 25 °C using D2O as a reference for internal deuterium lock on a Bruker Avance III 700 MHz equipped with an inverse TCI cryoprobe in 3 or 5 mm diameter tubes with a total sample volume of 160 or 565 μL, respectively. The water signal was reduced using Perfect Echo excitation sculpting suppression. Chemical shifts are reported in ppm relative to D2O (δH = 4.70 ppm).
Spectrometer settings were determined using a control sample containing all reaction components excluding enzyme. TET enzyme was added to an identical sample, and the resulting assay mixture was transferred to an NMR tube before deposition into the instrument. […] Data acquisition was started following a brief spectrometer setting optimisation (up to 200 s delay between enzyme addition and data acquisition); 8–32 scans were accumulated for a single spectrum, corresponding to 65–179 s of acquisition time. Spectrum recordings were carried out consecutively without delay. Data were processed using automated routines on MestReNova v14.2.0; signals of interest were integrated with absolute intensity scaling. ^1H NMR time courses reported in figures are representative results from two or three independent replicates.

NgTet1 [2] = biological target: T1, NgTet1; assay: End-point analysis for tandem activity detection (SPE-MS); format: biochemical; conditions: 5 µM NgTet1, 20 µM DNA, SPE-MS (Fig. S4)
Method: SPE-MS spectra were recorded on an Agilent RapidFire 365 High-throughput Mass Spectrometry system coupled to an Agilent 6550 iFunnel Q-TOF mass spectrometer following reported procedures[33],[34]. A RapidFire C4 (type A) solid-phase extraction (SPE) cartridge (Agilent, Cat#: G9203A) was used for analyte separation. A binary solvent system was used. Solvent A: 6 mM octylammonium acetate (prepared as described previously)[45] in H2O; solvent B: 80% v/v MeCN in H2O. Samples were aspirated into the sample loop using vacuum (40 μL) from a 96/384-well plate and loaded directly onto the SPE cartridge. The cartridge was washed with solvent A (4,000 ms, 1.5 mL min^−1), and the analyte was eluted with solvent B (4000 ms; 1.25 mL min^−1) onto the Q-TOF MS. Following each sample injection, the SPE cartridge was flushed with 3–6 cycles of H2O and MeCN to remove residual analyte before re-equilibration into solvent A. Q-TOF settings for DNA oligomer analysis were as follows: drying gas temperature: 280 °C; drying gas flow: 13 L min^−1; nebuliser gas pressure: 40 psig; sheath gas temperature: 350 °C; sheath gas flow: 12 L min^−1; capillary voltage (Vcap): 4000 V; nozzle voltage: 0 V; fragmentor voltage: 250 V; spectrum acquisition rate: 5 Hz. Data was processed using Agilent MassHunter Qualitative Analysis™ (B.07.00) and RapidFire Integrator software.
The samples were analysed by SPE-MS. […]

O=C(O)CNC(=O)C(=O)O [NOG, N-oxalylglycine]
normalised activity, % (NgTet1 [1]; -Log[inhibitor] (M) 3.30535): 27.0589% and 23.4073% and 23.5938%
normalised activity, % (NgTet1 [1]; -Log[inhibitor] (M) 3.82823): 54.6166% and 46.9965% and 50.3704%
normalised activity, % (NgTet1 [1]; -Log[inhibitor] (M) 4.30535): 72.1146% and 66.2321% and 78.0488%
normalised activity, % (NgTet1 [1]; -Log[inhibitor] (M) 4.90741): 90.0386% and 80.363% and 83.4878%
normalised activity, % (NgTet1 [1]; -Log[inhibitor] (M) 5.39553): 101.245% and 102.244% and 89.2336%
normalised activity, % (NgTet1 [1]; -Log[inhibitor] (M) 5.91841): 103.288% and 99.259% and 97.2201%
normalised activity, % (NgTet1 [1]; -Log[inhibitor] (M) 6.39553): 114.516% and 95.8112% and 105.039%
normalised activity, % (NgTet1 [1]; -Log[inhibitor] (M) 6.99759): 113.992% and 95.1834% and 95.7883%
normalised activity, % (NgTet1 [1]; -Log[inhibitor] (M) 7.50947): 110.682% and 100% and 109.028%
normalised activity, % (NgTet1 [1]; -Log[inhibitor] (M) 8.03235): 108.192% and 91.8591% and 90.7491%
IC50 (NgTet1 [1]; read-out: IC50, 5mC ssDNA, AS): 200 µM

5HC DNA: non-methylated DNA of the same sequence, 5'-ACC ACC GGT GGT-3', non-substrate (DNA ACCACCGGTGGT; DNA, backbone not given here)
succinate (TET2CDΔLCI; Time 0 min): 2.2 µM
succinate (TET2CDΔLCI; Time 2.5 min): 3.9 µM
succinate (TET2CDΔLCI; Time 5 min): 6.5 µM
succinate (TET2CDΔLCI; Time 7.5 min): 9.5 µM
succinate (TET2CDΔLCI; Time 10 min): 12.4 µM
succinate (TET2CDΔLCI; Time 15 min): 17.3 µM
succinate (TET2CDΔLCI; Time 20 min): 21.5 µM
enzymatic oxidation by NgTet1 (NgTet1 [2]): did not undergo enzymatic oxidation

— article PMC11662004 (Communications Chemistry, 2024)
